Source: US10294202B2, “Pyrrolidinones as herbicides” (FMC Corporation, priority 2013, dated 2019)
Read-outs that look alike come from different tables or passages of the source.

What was measured:
[1] = test system: giant foxtail; assay: Test A pre-/postemergence herbicide test; type: in vivo, Setaria faberii
Method in brief: (§1)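 Visual injury ratings, 0 = no effect, 100 = complete control, taken ~10 days after treatment against untreated greenhouse controls. Preemergence: directed soil spray onto seeded loam/sand pots. Postemergence: spray onto plants at one- to two-leaf stage, 2–10 cm tall.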

[2] = test system: wheat; assay: Test A pre-/postemergence herbicide test; type: in vivo, Triticum aestivum; details: Postemergence; for Wheat plant response rating (0 to 100 scale, 0 is no effect, 100 is complete control): 500 g ai/ha
Method in brief: as §1

[3] = test system: corn; assay: Test A pre-/postemergence herbicide test; type: in vivo, Zea mays; details: Postemergence; for Corn plant response rating (0 to 100 scale, 0 is no effect, 100 is complete control): 500 g ai/ha
Method in brief: as §1

[4] = test system: blackgrass; assay: Test C pre-/postemergence herbicide test; type: in vivo, Alopecurus myosuroides; details: for Blackgrass plant response rating: scale 0 to 100, 0 is no effect and 100 is complete control
Method in brief: (§2)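 Pre- and postemergence greenhouse screen. Preemergence treatment went onto freshly planted seeds in loam–sand soil; postemergence treatment went onto plants 2 to 18 cm tall at the 1- to 4-leaf stage in sphagnum peat/vermiculite medium. Scoring at 13 to 15 days used a 0–100 control scale.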

[5] = test system: galium; assay: Test C pre-/postemergence herbicide test; type: in vivo, Galium aparine
Method in brief: as §2

[6] = test system: corn; assay: Test C pre-/postemergence herbicide test; type: in vivo, Zea mays
Method in brief: as §2

[7] = test system: foxtail, giant; assay: Test C pre-/postemergence herbicide test; type: in vivo, Setaria faberii
Method in brief: as §2

[8] = test system: johnsongrass; assay: Test C pre-/postemergence herbicide test; type: in vivo, Sorghum halepense
Method in brief: as §2

[9] = test system: ragweed; assay: Test C pre-/postemergence herbicide test; type: in vivo, Ambrosia elatior
Method in brief: as §2

[10] = test system: oilseed rape; assay: Test C pre-/postemergence herbicide test; type: in vivo, Brassica napus
Method in brief: as §2

[11] = Postemergence, 31 g ai/ha, scale 0 to 100 (0 no effect, 100 complete control)
[12] = Postemergence, 62 g ai/ha, scale 0 (no effect) to 100 (complete control)
[13] = Postemergence, 125 g ai/ha, scale 0 to 100 (0 no effect, 100 complete control)
[14] = Postemergence, 250 g ai/ha, scale 0 to 100 (0 no effect, 100 complete control)
[15] = Preemergence, 62 g ai/ha, scale 0 to 100
[16] = Preemergence, 125 g ai/ha, scale 0 to 100 (0 no effect, 100 complete control)
[17] = Preemergence, 62 g ai/ha, scale 0 to 100 (0 no effect, 100 complete control)
[18] = Preemergence, 31 g ai/ha, scale 0 to 100, 0 is no effect and 100 is complete control
[19] = 125 g ai/ha, 0 to 100 scale, 0 is no effect, 100 is complete control

SMILES: O=C1NC[C@H](c2cccc(C(F)(F)F)c2)[C@H]1C(=O)Nc1ccccc1F [Compound 204, (3R,4S)—N-(2-fluorophenyl)-2-oxo-4-[3-(trifluoromethyl)phenyl]-3-pyrrolidinecarboxamide]
- Foxtail, Giant plant response rating (0 to 100 scale, 0 is no effect, 100 is complete control) ([1]; Postemergence, 500 g ai/ha): 90
- pest or weed control at 125 g/ha ([1]; Setaria faberi, post-emergence, 240 h, Postemergence, 125 g ai/ha, 0 to 100 scale, 0 is no effect, 100 is complete control, read-out: Plant response rating, Foxtail, Giant): 90%
- pest or weed control at 125 g/ha ([1]; Setaria faberi, pre-emergence, 240 h, 125 g ai/ha, visual rating, 0 to 100 scale, 0 no effect, 100 complete control, approximately 10 days, read-out: Plant response rating, Foxtail, Giant): 90%
- pest or weed control at 500 g/ha ([1]; Setaria faberi, pre-emergence, 240 h, preemergence, 500 g ai/ha, 0 to 100 scale, 0 is no effect and 100 is complete control, read-out: Plant response rating, Foxtail, Giant): 90%
- Wheat plant response rating (0 to 100 scale, 0 is no effect, 100 is complete control) [2]: 80
- plant injury at 125 g/ha ([2]; Triticum aestivum, post-emergence, 240 h, 125 g ai/ha, 0 to 100 scale, 0 is no effect, 100 is complete control, read-out: Plant response rating, Wheat): 60%
- Corn plant response rating (0 to 100 scale, 0 is no effect, 100 is complete control) [3]: 80
- Corn plant response rating (crop injury, 0 = no effect, 100 = complete kill) at 125 g/ha ([3]; Zea mays, post-emergence, 240 h, 125 g ai/ha, 0 to 100 scale, 0 is no effect, 100 is complete control): 60%
- Plant response rating, Blackgrass [4, 11]: 0
- Plant response rating, Blackgrass [4, 12]: 0
- Plant response rating, Blackgrass [4, 13]: 0
- Plant response rating, Blackgrass [4, 14]: 50
- Blackgrass plant response rating ([4]; Preemergence, 31 g ai/ha): 90
- Plant response rating, Blackgrass [4, 15]: 90
- Plant response rating, Blackgrass [4, 16]: 90
- Plant response rating (scale of 0 to 100), Blackgrass ([4]; Preemergence, 250 g ai/ha): 90
- Plant response rating, Galium [5, 11]: 10
- Plant response rating, Galium [5, 12]: 45
- Plant response rating, Galium [5, 13]: 60
- Plant response rating, Galium [5, 14]: 60
- Galium plant response rating [5, 17]: 90
- Plant response rating, Galium [5, 16]: 90
- Plant response rating (scale of 0 to 100), Galium ([5]; Preemergence, 250 g ai/ha): 90
- Plant response rating, Corn [6, 11]: 0
- Plant response rating, Corn [6, 12]: 0
- Plant response rating, Corn [6, 13]: 0
- Plant response rating, Corn [6, 14]: 40
- Corn plant response rating [6, 18]: 45
- Corn plant response rating [6, 17]: 25
- Plant response rating, Corn [6, 16]: 55
- Plant response rating (scale of 0 to 100), Corn ([6]; Preemergence, 250 g ai/ha): 75
- Plant response rating, Foxtail, Giant [7, 11]: 0
- Plant response rating, Foxtail, Giant [7, 12]: 10
- Plant response rating, Foxtail, Giant [7, 13]: 90
- Plant response rating, Foxtail, Giant [7, 14]: 90
- Foxtail, Giant plant response rating [7, 18]: 90
- Foxtail, Giant plant response rating [7, 17]: 90
- Plant response rating, Foxtail, Giant [7, 16]: 95
- Plant response rating (scale of 0 to 100), Foxtail, Giant ([7]; Preemergence, 250 g ai/ha): 95
- Plant response rating, Johnsongrass [8, 11]: 0
- Plant response rating, Johnsongrass [8, 12]: 0
- Plant response rating, Johnsongrass [8, 13]: 0
- Plant response rating, Johnsongrass [8, 14]: 0
- Johnsongrass plant response rating [8, 18]: 10
- Johnsongrass plant response rating [8, 17]: 40
- Plant response rating, Johnsongrass [8, 16]: 75
- Plant response rating (scale of 0 to 100), Johnsongrass ([8]; Preemergence, 250 g ai/ha): 85
- Plant response rating, Ragweed [9, 11]: 0
- Plant response rating, Ragweed [9, 12]: 0
- Plant response rating, Ragweed [9, 13]: 0
- Plant response rating, Ragweed [9, 14]: 0
- Ragweed plant response rating [9, 18]: 30
- Ragweed plant response rating [9, 17]: 30
- Plant response rating, Ragweed [9, 16]: 100
- Plant response rating (scale of 0 to 100), Ragweed ([9]; Preemergence, 250 g ai/ha): 65
- Plant response rating, Oilseed Rape [10, 11]: 0
- Plant response rating, Oilseed Rape [10, 12]: 0
- Plant response rating, Oilseed Rape [10, 13]: 0
- Plant response rating, Oilseed Rape [10, 14]: 45
- Oilseed Rape plant response rating [10, 18]: 0
- Oilseed Rape plant response rating [10, 17]: 0
- Plant response rating, Oilseed Rape [10, 16]: 0
- Plant response rating (scale of 0 to 100), Oilseed Rape ([10]; Preemergence, 250 g ai/ha): 60

SMILES: O=C1NC[C@H](c2cccc(C(F)(F)F)c2)[C@H]1C(=O)Nc1cccc(F)c1F [Compound 206]
- Plant response rating, Foxtail, Giant ([1]; 125 g ai/ha, visual rating, 0 to 100 scale, 0 no effect, 100 complete control, approximately 10 days, preemergence): 90
- Plant response rating, Foxtail, Giant ([1]; Postemergence, 125 g ai/ha, 0 to 100 scale, 0 is no effect, 100 is complete control): 90
- Foxtail, Giant plant response rating (0 to 100 scale, 0 is no effect, 100 is complete control) ([1]; Postemergence, 500 g ai/ha): 90
- Plant response rating, Foxtail, Giant ([1]; preemergence, 500 g ai/ha, 0 to 100 scale, 0 is no effect and 100 is complete control): 90
- Plant response rating, Wheat [2, 19]: 70
- Wheat plant response rating (0 to 100 scale, 0 is no effect, 100 is complete control) [2]: 80
- Plant response rating, Corn [3, 19]: 60
- Corn plant response rating (0 to 100 scale, 0 is no effect, 100 is complete control) [3]: 80
- Plant response rating, Blackgrass [4, 11]: 0
- Plant response rating, Blackgrass [4, 12]: 0
- Plant response rating, Blackgrass [4, 13]: 40
- Plant response rating, Blackgrass [4, 14]: 60
- Blackgrass plant response rating ([4]; Preemergence, 31 g ai/ha): 85
- Plant response rating, Blackgrass [4, 15]: 90
- Plant response rating, Blackgrass [4, 16]: 90
- Plant response rating (scale of 0 to 100), Blackgrass ([4]; Preemergence, 250 g ai/ha): 90
- Plant response rating, Galium [5, 11]: 60
- Plant response rating, Galium [5, 12]: 75
- Plant response rating, Galium [5, 13]: 75
- Plant response rating, Galium [5, 14]: 75
- Galium plant response rating [5, 18]: 20
- Galium plant response rating [5, 17]: 70
- Plant response rating, Galium [5, 16]: 70
- Plant response rating (scale of 0 to 100), Galium ([5]; Preemergence, 250 g ai/ha): 85
- Plant response rating, Corn [6, 11]: 0
- Plant response rating, Corn [6, 12]: 0
- Plant response rating, Corn [6, 13]: 30
- Plant response rating, Corn [6, 14]: 50
- Corn plant response rating [6, 18]: 30
- Corn plant response rating [6, 17]: 60
- Plant response rating, Corn [6, 16]: 65
- Plant response rating (scale of 0 to 100), Corn ([6]; Preemergence, 250 g ai/ha): 60
- Plant response rating, Foxtail, Giant [7, 11]: 0
- Plant response rating, Foxtail, Giant [7, 12]: 50
- Plant response rating, Foxtail, Giant [7, 13]: 50
- Plant response rating, Foxtail, Giant [7, 14]: 85
- Foxtail, Giant plant response rating [7, 18]: 90
- Foxtail, Giant plant response rating [7, 17]: 90
- Plant response rating, Foxtail, Giant [7, 16]: 95
- Plant response rating (scale of 0 to 100), Foxtail, Giant ([7]; Preemergence, 250 g ai/ha): 95
- Plant response rating, Johnsongrass [8, 11]: 0
- Plant response rating, Johnsongrass [8, 12]: 0
- Plant response rating, Johnsongrass [8, 13]: 0
- Plant response rating, Johnsongrass [8, 14]: 35
- Johnsongrass plant response rating [8, 18]: 25
- Johnsongrass plant response rating [8, 17]: 65
- Plant response rating, Johnsongrass [8, 16]: 85
- Plant response rating (scale of 0 to 100), Johnsongrass ([8]; Preemergence, 250 g ai/ha): 85
- Plant response rating, Ragweed [9, 11]: 5
- Plant response rating, Ragweed [9, 12]: 0
- Plant response rating, Ragweed [9, 13]: 25
- Plant response rating, Ragweed [9, 14]: 5
- Ragweed plant response rating [9, 18]: 80
- Ragweed plant response rating [9, 17]: 10
- Plant response rating, Ragweed [9, 16]: 70
- Plant response rating (scale of 0 to 100), Ragweed ([9]; Preemergence, 250 g ai/ha): 98
- Plant response rating, Oilseed Rape [10, 11]: 0
- Plant response rating, Oilseed Rape [10, 12]: 30
- Plant response rating, Oilseed Rape [10, 13]: 50
- Plant response rating, Oilseed Rape [10, 14]: 55
- Oilseed Rape plant response rating [10, 18]: 5
- Oilseed Rape plant response rating [10, 17]: 70
- Plant response rating, Oilseed Rape [10, 16]: 75
- Plant response rating (scale of 0 to 100), Oilseed Rape ([10]; Preemergence, 250 g ai/ha): 90
